In US11022604B2, “Dock derived compound against laminin receptor (37 LR) and uses thereof” (Purdue Research Foundation, priority 2017, dated 2021):

Legend:
THP-1 human monocytes = test: Inflammatory gene expression (qPCR) in LPS-stimulated THP-1 macrophages; format: cell-based
Description: FIG. 17—Fold change in inflammatory gene expression when THP-1 monocytes are treated with Compounds of Interest. […] PL, PMA-differentiated and treated with LPS. P18, PEDF peptide. (*, p<0.05 relative to PL)
Cell Culture. THP-1 human monocytes were purchased from ATCC (Manassas, Va.) and cultured in DMEM/10% FBS/1% Anti-Anti (Gibco). The monocytes were differentiated into macrophages with 5 ng/ml […] (PMA) for 48 h and pretreated with drugs for 6 h. Lipopolysaccharide (LPS, 10 ng/ml) stimulation was performed for 1 h and cells were collected for assays. Human adipose-derived mesenchymal stromal/stem cells (ASC) were purchased from LaCell, LLC (Metairie, La.) and grown on fibronectin-coated plates in MCDB-201/DMEM/10% FBS media. RNA isolation and qPCR. RNA was isolated from cell pellets using an RNAeasy kit (Qiagen) according to manufacturers' specifications for tissue samples. 1 μg RNA was reverse transcribed using a AmfiRivert kit (Genedepot) and 2 μl used in a SYBR green quantitative PCR reaction for detecting differences in gene expression relative to beta-actin control. Luciferase Assays. THP-1 human monocytes were seeded in OptiMEM/1% anti-anti (Gibco) and transfected using Lipofectamine LTX (Invitrogen, Carlsbad, Calif.) in a 96-well format in white opaque plates. […] The samples were read in a BiotekNeo (Bindley Bioscience Center). […]

[1] = test system: PC3 prostate cancer cell line; test: Cell Titer Glo cell viability assay; format: cell-based; settings: Homo sapiens, PC-3, PC3 cells
From the text: In this series of cell viability experiments, we used the highly sensitive Cell Titer Glo reagents from Promega in PC3 prostate cancer cell line. We compared the parental compound C3 effect on reducing cell viability with the best derivative compound, DBG-02-09.

O=C(c1cc(F)cc2c1OCOC2)N1CCN(C2c3ccccc3-c3ccccc32)CC1 [Compound C3, [4-(9h-fluoren-9-yl)piperazino](6-fluoro-4h-1,3-benzodioxin-8-yl)methanone]
reduction of IL-1β expression (THP-1 human monocytes): ~8 fold
IC50 [1]: 16.7 ± 7.6 µM
